The values below come from patent US9242933B2 (AbbVie Deutschland GmbH & Co. KG, priority 2007, dated 2016).

For orientation: EC50 means the concentration needed to bring the measured effect to its halfway point.

This assay deals with T1, human mGlu2 receptor (Homo sapiens, UniProt Q14416).
T1 construct: expressed in transfected cells; host or cells: HEK293
T1 sequence (Q14416 19-872): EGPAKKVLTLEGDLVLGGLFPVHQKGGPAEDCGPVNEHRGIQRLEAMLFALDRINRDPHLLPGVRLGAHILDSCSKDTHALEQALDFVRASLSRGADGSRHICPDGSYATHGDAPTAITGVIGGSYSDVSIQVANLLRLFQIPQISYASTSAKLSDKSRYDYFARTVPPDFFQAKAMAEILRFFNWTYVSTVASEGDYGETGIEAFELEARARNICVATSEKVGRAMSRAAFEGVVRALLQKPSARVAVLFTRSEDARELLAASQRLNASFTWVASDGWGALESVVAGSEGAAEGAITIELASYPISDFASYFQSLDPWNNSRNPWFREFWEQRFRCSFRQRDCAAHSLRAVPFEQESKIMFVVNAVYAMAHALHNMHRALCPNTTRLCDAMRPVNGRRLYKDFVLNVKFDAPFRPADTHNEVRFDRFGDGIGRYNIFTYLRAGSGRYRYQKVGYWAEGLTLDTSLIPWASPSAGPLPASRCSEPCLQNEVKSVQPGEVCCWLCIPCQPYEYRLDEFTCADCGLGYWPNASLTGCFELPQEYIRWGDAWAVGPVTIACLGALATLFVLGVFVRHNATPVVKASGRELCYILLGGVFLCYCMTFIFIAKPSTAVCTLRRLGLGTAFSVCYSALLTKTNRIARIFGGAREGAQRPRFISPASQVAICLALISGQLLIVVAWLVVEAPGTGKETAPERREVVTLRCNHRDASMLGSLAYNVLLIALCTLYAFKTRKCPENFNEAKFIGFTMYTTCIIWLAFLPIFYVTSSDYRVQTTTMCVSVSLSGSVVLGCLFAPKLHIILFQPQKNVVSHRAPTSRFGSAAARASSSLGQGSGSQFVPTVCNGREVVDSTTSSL
The experiment in a line: FLIPR intracellular Ca2+ assay, potentiation of glutamate response in HEK293 clone expressing mGlu2 receptor, rGLAST and Galpha16. It is filed as cell-based. Conditions: 1 μM glutamate added ten minutes after test compound, HEK293 cells with human mGlu2, rGLAST, Galpha16, read-out: EC50 values of potentiation effect to glutamate. In outline:
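HEK293 cells stably expressing human mGlu2, rat GLAST and Gα16 were loaded with 2 µM Fluo-4 AM and intracellular Ca2+ read by FLIPR. Compound added alone (agonism), then with submaximal glutamate (e.g. 1 µM; potentiation). Background-subtracted peaks normalized to 100 µM glutamate response; EC50 from four-parameter fit.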
Turning to `CCCC(=O)c1ccc(NCc2n[nH]cc2-c2ccc(CC)cc2)cc1` [Example 516, 1-(4-{[4-(4-Ethyl-phenyl)-1H-pyrazol-3-ylmethyl]-amino}-phenyl)-butan-1-one], the EC50 was below 1 µM.

Take `CCCC(=O)c1ccc(NCc2c[nH]nc2-c2ccccc2)cc1` [Example 210, 1-{4-[(3-Phenyl-1H-pyrazol-4-ylmethyl)-amino]-phenyl}-butan-1-one]: the concentration for a half-maximal effect (EC50) is below 1 µM.

Turning to `CCCC(=O)c1ccc(NCc2cnc(-c3cccc(OC)c3)s2)cc1` [Example 243, 1-(4-{[2-(3-Methoxy-phenyl)-thiazol-5-ylmethyl]-amino}-phenyl)-butan-1-one], the EC50 was 1 to 10 µM.

`FC(F)(F)c1ccc(-c2n[nH]cc2CNc2cccc(Cl)n2)cc1` [Example 349, (6-Chloro-pyridin-2-yl)-[3-(4-trifluoromethyl-phenyl)-1H-pyrazol-4-ylmethyl]-amine]: the EC50 was in the range of 1 to 10 µM.

On to `CCCC(=O)c1ccc(OCc2n[nH]cc2-c2ccc(OC)cc2)cc1` [Example 520, 1-{4-[4-(4-Methoxy-phenyl)-1H-pyrazol-3-ylmethoxy]-phenyl}-butan-1-one], for which the EC50 is below 1 µM.

Regarding `CCCC(=O)c1ccc(NCc2ccc(OC)nc2OC)cc1` [Example 317, 1-{4-[(2,6-Dimethoxy-pyridin-3-ylmethyl)-amino]-phenyl}-butan-1-one], the EC50 lay in the range of 1 to 10 µM.

In the case of `CCCN1Cc2cc(NCc3c[nH]nc3-c3ccccc3)ccc2C1=O` [Example 581, 5-[(3-Phenyl-1H-pyrazol-4-ylmethyl)-amino]-2-propyl-2,3-dihydro-isoindol-1-one], the EC50 is below 1 µM.

On to `CCCCN1Cc2cc(OCc3c[nH]nc3-c3cccc(Cl)c3)ccc2C1=O` [Example 549, 2-Butyl-5-[3-(3-chloro-phenyl)-1H-pyrazol-4-ylmethoxy]-2,3-dihydro-isoindol-1-one], for which the EC50 is below 1 µM.

Regarding `CCCN1Cc2cc(OCc3c[nH]nc3-c3cccc(C(F)(F)F)c3)ccc2C1=O` [Example 532, 2-Propyl-5-[3-(3-trifluoromethyl-phenyl)-1H-pyrazol-4-ylmethoxy]-2,3-dihydro-isoindol-1-one], the EC50 is below 1 µM.

On to `CC(=O)c1ccc(NCc2c[nH]nc2-c2ccc(C(F)(F)F)cc2)cc1` [Example 501, 1-(4-{[3-(4-Trifluoromethyl-phenyl)-1H-pyrazol-4-ylmethyl]-amino}-phenyl)-ethanone], for which the EC50 is 1 to 10 µM.

For the compound `CN1CCC(Oc2ccc(NCc3c[nH]nc3C(C)(C)C)cc2)CC1` [Example 284, (3-tert-Butyl-1H-pyrazol-4-ylmethyl)-[4-(1-methyl-piperidin-4-yloxy)-phenyl]-amine], the EC50 fell in the range of 1 to 10 µM.

Regarding `CCCC(=O)c1ccc(NCc2n[nH]cc2-c2ccc(Cl)cc2)cc1` [Example 518, 1-(4-{[4-(4-Chloro-phenyl)-1H-pyrazol-3-ylmethyl]-amino}-phenyl)-butan-1-one], the EC50 fell in the range of 1 to 10 µM.

In the case of `CCCC(=O)c1ccc(SCc2c[nH]nc2-c2ccc(C(F)(F)F)cc2)cc1` [Example 492, 1-{4-[3-(4-Trifluoromethyl-phenyl)-1H-pyrazol-4-ylmethylsulfanyl]-phenyl}-butan-1-one], the EC50 lay in the range of 1 to 10 µM.

Consider `CCCC(=O)c1ccc(NCc2nc(-c3cccs3)oc2C)cc1` [Example 245, 1-{4-[(5-Methyl-2-thiophen-2-yl-oxazol-4-ylmethyl)-amino]-phenyl}-butan-1-one], for which the EC50 fell in the range of 1 to 10 µM.

Turning to `CCCC(=O)c1ccc(NCc2cnn(-c3ccccc3)c2C)cc1` [Example 45, 1-{4-[(5-Methyl-1-phenyl-1H-pyrazol-4-ylmethyl)amino]phenyl}butan-1-one], the EC50 fell in the range of 1 to 10 µM.

For `CCCC(=O)c1ccc(N(Cc2cccnc2)S(=O)(=O)CC(F)(F)F)cc1` [Example 383, 2,2,2-Trifluoro-ethanesulfonic acid (4-butyryl-phenyl)-pyridin-3-ylmethyl-amide], the EC50 lay in the range of 1 to 10 µM.

`CCCC(=O)c1ccc(NCc2ccc(CC)s2)cc1` [Example 9, 1-{4-[(5-Ethylthiophen-2-ylmethyl)amino]phenyl}butan-1-one]: the EC50 was in the range of 1 to 10 µM.

In the case of `CCCC(=O)c1ccc(NCc2cccnc2-c2ccccc2)cc1` [Example 526, 1-{4-[(2-Phenyl-pyridin-3-ylmethyl)-amino]-phenyl}-butan-1-one], the EC50 lay in the range of 1 to 10 µM.

For the compound `CCCC(=O)c1ccc(NCc2c[nH]nc2-c2ccc(Cl)cc2)cc1OC(CC)CC` [Example 437, 1-[4-{[3-(4-Chloro-phenyl)-1H-pyrazol-4-ylmethyl]-amino}-2-(1-ethyl-propoxy)-phenyl]-butan-1-one], the EC50 fell in the range of 1 to 10 µM.

As to `O=C1c2ccc(OCc3c[nH]nc3-c3ccc(C(F)(F)F)cc3)cc2CN1CCC(F)(F)F` [Example 542, 5-[3-(4-Trifluoromethyl-phenyl)-1H-pyrazol-4-ylmethoxy]-2-(3,3,3-trifluoro-propyl)-2,3-dihydro-isoindol-1-one], the EC50 is below 1 µM.

Consider `CCCN1Cc2cc(NCc3c[nH]nc3-c3ccc(Cl)cc3)ccc2C1=O` [Example 576, 5-{[3-(4-Chloro-phenyl)-1H-pyrazol-4-ylmethyl]-amino}-2-propyl-2,3-dihydro-isoindol-1-one], for which the EC50 is below 1 µM.

On to `O=C(c1ccccc1)c1ccc(NCc2c[nH]nc2-c2ccc(C(F)(F)F)cc2)cc1` [Example 504, Phenyl-(4-{[3-(4-trifluoromethyl-phenyl)-1H-pyrazol-4-ylmethyl]-amino}-phenyl)-methanone], for which the EC50 lay within 1 to 10 µM.

`CCCC(=O)c1ccc(NCc2nn(C)c3ccccc23)cc1` [Example 219, 1-{4-[(1-Methyl-1H-indazol-3-ylmethyl)-amino]-phenyl}-butan-1-one]: the EC50 was 1 to 10 µM.

Regarding `O=C1c2ccc(OCc3c[nH]nc3-c3ccc(C(F)(F)F)cc3)cc2CN1CC(F)F` [Example 566, 2-(2,2-Difluoro-ethyl)-5-[3-(4-trifluoromethyl-phenyl)-1H-pyrazol-4-ylmethoxy]-2,3-dihydro-isoindol-1-one], the EC50 was below 1 µM.

Regarding `CCCC(=O)c1ccc(NCc2c[nH]nc2-c2ccc(F)cc2)cc1` [Example 508, 1-(4-{[3-(4-Fluorophenyl)-1H-pyrazol-4-ylmethyl]-amino}-phenyl)-butan-1-one], the EC50 was below 1 µM.

As for `CCCC(=O)c1ccc(NCc2c[nH]nc2-c2ccc(C(F)(F)F)cc2)cc1` [Example 42], the EC50 was below 1 µM.

Turning to `CCCC(=O)c1cccc(NCc2n[nH]cc2-c2ccc(OC)cc2)c1` [Example 514, 1-(3-{[4-(4-Methoxy-phenyl)-1H-pyrazol-3-ylmethyl]-amino}-phenyl)-butan-1-one], the EC50 was 1 to 10 µM.

Regarding `CCCC(=O)c1ccc(NCc2c[nH]nc2-c2cccs2)cc1` [Example 40, 1-(4-{[3-(Thiophen-2-yl)-1H-pyrazol-4-ylmethyl]amino}phenyl)butan-1-one], the EC50 is below 1 µM.

As to `CCCC(=O)c1ccc(NCc2csc(C(C)C)n2)cc1` [Example 268, 1-{4-[(2-Isopropyl-thiazol-4-ylmethyl)-amino]-phenyl}-butan-1-one], the EC50 is 1 to 10 µM.

Consider `CCCC(=O)c1ccc(NCc2c[nH]nc2-c2ccc(OC)c(OC)c2)cc1` [Example 218, 1-(4-{[3-(3,4-Dimethoxy-phenyl)-1H-pyrazol-4-ylmethyl]-amino}-phenyl)-butan-1-one], for which the EC50 is below 1 µM.

For `O=C1c2ccc(OCc3c[nH]nc3-c3ccc(C(F)(F)F)cc3)cc2CN1CC(F)(F)F` [Example 568, 2-(2,2,2-Trifluoro-ethyl)-5-[3-(4-trifluoromethyl-phenyl)-1H-pyrazol-4-ylmethoxy]-2,3-dihydro-isoindol-1-one], the EC50 was below 1 µM.

On to `CCCc1c(NCc2c[nH]nc2-c2cccc(C(F)(F)F)c2)ccc(C(C)=O)c1O` [Example 436, 1-(2-Hydroxy-3-propyl-4-{[3-(3-trifluoromethyl-phenyl)-1H-pyrazol-4-ylmethyl]-amino}-phenyl)-ethanone], for which the EC50 was 1 to 10 µM.

In the case of `CCCC(=O)c1ccc(NCc2c[nH]nc2-c2cccc(C(F)(F)F)c2)cc1` [Example 416, 1-(4-{[3-(3-Trifluoromethyl-phenyl)-1H-pyrazol-4-ylmethyl]-amino}-phenyl)-butan-1-one], the concentration for a half-maximal effect (EC50) lay within 1 to 10 µM.

`CCN1Cc2cc(OCc3c[nH]nc3-c3cccc(F)c3)ccc2C1=O` [Example 560, 2-Ethyl-5-[3-(3-fluorophenyl)-1H-pyrazol-4-ylmethoxy]-2,3-dihydro-isoindol-1-one]: the EC50 was below 1 µM.

For `CCCC(=O)c1ccc(NCc2cccnc2OC(C)C)cc1` [Example 310, 1-{4-[(2-Isopropoxy-pyridin-3-ylmethyl)-amino]-phenyl}-butan-1-one], the EC50 was in the range of 1 to 10 µM.

As for `CCC(=O)c1ccc(OCc2c[nH]nc2-c2ccc(C(F)(F)F)cc2)cc1` [Example 489, 1-{4-[3-(4-Trifluoromethyl-phenyl)-1H-pyrazol-4-ylmethoxy]-phenyl}-propan-1-one], the EC50 is below 1 µM.

With `CCCCN1Cc2cc(OCc3c[nH]nc3-c3ccc(Cl)cc3)ccc2C1=O` [Example 546, 2-Butyl-5-[3-(4-chloro-phenyl)-1H-pyrazol-4-ylmethoxy]-2,3-dihydro-isoindol-1-one], the EC50 is below 1 µM.

Take `COc1ccc(NCc2c[nH]nc2-c2ccc(C(F)(F)F)cc2)c(OC)n1` [Example 351, (2,6-Dimethoxy-pyridin-3-yl)-[3-(4-trifluoromethyl-phenyl)-1H-pyrazol-4-ylmethyl]-amine]: the EC50 was 1 to 10 µM.

Regarding `CCCC(=O)c1ccc(NCc2cn(C)cn2)cc1` [Example 228, 1-{4-[(1-Methyl-1H-imidazol-4-ylmethyl)-amino]-phenyl}-butan-1-one], the EC50 lay within 1 to 10 µM.

Take `Cc1ccc(NCc2c[nH]nc2-c2ccc(C(F)(F)F)cc2)nc1C` [Example 363, (5,6-Dimethyl-pyridin-2-yl)-[3-(4-trifluoromethyl-phenyl)-1H-pyrazol-4-ylmethyl]-amine]: the EC50 fell in the range of 1 to 10 µM.

As to `CCCC(=O)c1ccc(NCc2cnn(CCC)c2C)cc1` [Example 71], the EC50 was 1 to 10 µM.
